The target in assay [1] is T1, rat MR (Rattus norvegicus, UniProt P22199).
T1 construct: expressed in transfected cells; host or cells: rat H9C2 cardiomyocyte cells (H9-C2/MR)
T1 sequence (P22199 1-981): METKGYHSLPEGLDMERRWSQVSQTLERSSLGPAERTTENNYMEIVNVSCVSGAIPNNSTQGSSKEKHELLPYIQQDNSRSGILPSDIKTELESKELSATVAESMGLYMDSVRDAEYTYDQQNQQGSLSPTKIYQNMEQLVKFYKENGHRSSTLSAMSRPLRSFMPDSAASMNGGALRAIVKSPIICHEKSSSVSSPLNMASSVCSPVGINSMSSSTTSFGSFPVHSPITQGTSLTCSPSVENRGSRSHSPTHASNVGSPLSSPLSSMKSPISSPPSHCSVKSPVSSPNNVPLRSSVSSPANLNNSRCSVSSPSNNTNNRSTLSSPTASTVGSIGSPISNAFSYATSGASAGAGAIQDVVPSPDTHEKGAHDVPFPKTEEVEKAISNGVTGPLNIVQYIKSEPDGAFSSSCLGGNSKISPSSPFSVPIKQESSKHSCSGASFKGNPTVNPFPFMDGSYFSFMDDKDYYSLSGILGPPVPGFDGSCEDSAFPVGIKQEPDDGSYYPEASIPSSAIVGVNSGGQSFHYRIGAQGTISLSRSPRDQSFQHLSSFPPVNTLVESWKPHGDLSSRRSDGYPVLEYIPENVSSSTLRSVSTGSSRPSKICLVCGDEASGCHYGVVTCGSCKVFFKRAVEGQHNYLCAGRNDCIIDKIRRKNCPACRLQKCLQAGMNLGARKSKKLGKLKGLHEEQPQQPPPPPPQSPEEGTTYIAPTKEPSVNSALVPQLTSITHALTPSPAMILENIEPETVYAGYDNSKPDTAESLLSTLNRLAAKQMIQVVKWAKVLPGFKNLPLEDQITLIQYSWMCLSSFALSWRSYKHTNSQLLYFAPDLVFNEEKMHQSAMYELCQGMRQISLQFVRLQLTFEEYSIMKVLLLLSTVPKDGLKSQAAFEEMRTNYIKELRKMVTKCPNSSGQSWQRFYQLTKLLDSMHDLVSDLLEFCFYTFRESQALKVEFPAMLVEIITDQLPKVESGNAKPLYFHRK
The assay is described as follows: Expression of NGAL mRNA (Q-PCR) in rat cardiomyocyte H9C2 cells stably expressing rat MR. Format: cell-based. The procedure:
Expression of NGAL in a Cellular Model of Rat Cardiomyocyte (H9C2 Cells) Stably Overexpressing with Rat MR
Quantitative NGAL mRNA expression was analyzed by quantitative PCR (Q-PCR, Light Cycler, Biorad) using forward 5′-[…]-3′ (SEQ ID NO:3) and reverse 5′-[…]-3′ (SEQ ID NO:4) primers on 25 μl of RT-PCR (using the qPCR Core kit for Sybr Green I from Eurogentec) prepared using 2 μg DNA-free total RNA extracted from rat H9-C2/MR cells treated with various concentrations of aldosterone or 10^−8M corticosterone or 10^−6 M MR antagonist RU 28318 or GR antagonist RU 486, alone or in combination.

In assay [2] the target is T1, rat MR. The assay is described as follows: Expression of Serpina3 mRNA (Q-PCR) in rat cardiomyocyte H9C2 cells stably overexpressing rat MR. Format: cell-based. The procedure: Expression of Serpina3 in a Cellular Model of Rat Cardiomyocyte (H9C2 Cells) Stably Overexpressing with Rat MR
Quantitative Serpina3 mRNA expression was analyzed by quantitative PCR (Q-PCR, Light Cycler, Biorad) using forward 5′-[…]-3′ (SEQ ID NO:7) and reverse 5′-[…]-3′ (SEQ ID NO:8) primers on 25 μl of RT-PCR (using the qPCR Core kit for Sybr Green I from Eurogentec) prepared using 2 μg DNA-free total RNA extracted from rat H9-C2/MR cells treated with various concentrations of aldosterone or 10^−8M corticosterone or 10^−6 M MR antagonist RU 28318, alone or in combination.

This note sets out measurements from US20160362744A1, “Biomarkers of Mineralocorticoid Receptor Activation” (INSERM (Institut National de la Sante et de la Recherche …, priority 2008, published 2016).

SMILES strings stand for the structures.

For `CCC[C@@H]1CC2=CC(=O)CC[C@]2(C)[C@H]2CC[C@@]3(C)[C@@H](CC[C@@]3(O)CCC(=O)[O-])[C@H]12.[K+]` [RU 28318], the “Effect on aldosterone-induced increase of Lipocalin2/NGAL expression” value on rat MR [1] (antagonist (10^−6 M) added to 10^−8M aldosterone) is given as “prevented”. In addition, the “Effect on corticosterone-induced increase of Lipocalin2/NGAL expression” value at rat MR [1] (antagonist (10^−6 M) with 10^−8M corticosterone) is given as “prevented”. For the same compound, the “Effect on corticosterone induction of SERPINA3 mRNA” value at rat MR [2] (H9C2/MR+ cells, MR antagonist with 10 nM corticosterone) was “prevented”. In addition, the “Effect on aldosterone induction of SERPINA3 mRNA” value on rat MR [2] (H9C2/MR+ cells, in presence of MR antagonist with 1 nM aldosterone) is given as “suppressed”.
As to `C[C@]12C[C@H](O)[C@H]3[C@@H](CCC4=CC(=O)CC[C@@]43C)[C@@H]1CC[C@@H]2C(=O)CO` [corticosterone], the Lipocalin2/NGAL expression entry at rat MR [1] (10^−8M corticosterone) is listed as “stimulated”. Besides, at rat MR [2] (H9C2/MR cells, 10 nM corticosterone, 24 h), the “SERPINA3 mRNA expression” value is given as “increased”.
